From US10098883B2, “(Aza)pyridopyrazolopyrimidinones and indazolopyrimidinones and their use” (BAYER PHARMA AKTIENGESELLSCHAFT, priority 2013, dated 2018)
Structures can show the parent of a compound that is named as a salt.

Tested on: clot lysis (fibrinolysis) in human citrated plasma, tPA-induced
Experiment: Plasma-based clot lysis assay (5%)
Assay type: biochemical
Conditions: diluted human citrated plasma (platelet-poor, 5%), fibrinogen 3 μM, CaCl2 10 mM, tPA 0.2 nM, 37° C., OD 405 nm
Experimental: B-2. Plasma-based Clot Lysis Assay (5%)
The clot-lysis test system configures the kinetics of clot formation and degradation in vitro and allows quantifying modulation of the process by selected test compounds.
The test compounds were dissolved in 1% acetic acid and further complemented with an equal volume of DMSO. The resulting stock solutions were serially diluted in 0.5% acetic acid/50% DMSO. 1 μL aliquots of these solutions were placed into 384 well microplates (Greiner, black, transparent bottom), followed by 30 μL of diluted human citrated plasma (platelet-poor, final concentration: 5%; supplemented with fibrinogen, final concentration: 3 μM; dilution buffer: 20 mM HEPES, 150 mM NaCl, 0.01% Brij (pH 7)). The reactions were started by addition of […] of CaCl2 (final concentration: 10 mM), and tPA (tissue plasminogen activator, final concentration: 0.2 nM) in dilution buffer, followed by an additional volume of 20 μL dilution buffer for improved mixing. The reactions were incubated at 37° C. Clot formation and degradation was monitored spectrophotometrically by kinetic optical density measurements at 405 nm. IC50 values were determined by comparing the resulting time courses with the time course of a blank control reaction.

SMILES	IC50 [nM]	IC50 (trifluoroacetate) [nM]
O=c1cc(C2CCNCC2)n2nc3cc(C(F)(F)F)cc([N+](=O)[O-])c3c2[nH]1 [Example 31, 10-Nitro-4-(piperidin-4-yl)-8-(trifluoromethyl)pyrimido[1,2-b]indazol-2(1H)-one hydrochloride]	97	–
O=c1cc(C2CCNCC2)n2nc3cncc(Br)c3c2[nH]1 [Example 43, 10-Bromo-4-(piperidin-4-yl)pyrido[3′,4′:3,4]pyrazolo[1,5-a]pyrimidin-2(1H)-one hydrochloride]	100	–
CC(C)(C)c1ccc2c(n1)nn1c(C3CCNCC3)cc(=O)[nH]c21 [Example 13, 8-tert-Butyl-4-(piperidin-4-yl)pyrido[2′,3′:3,4]pyrazolo[1,5-a]pyrimidin-2(1H)-one hydrochloride]	31	–
O=c1cc(C2CCNCC2)n2nc3cc(F)ccc3c2[nH]1 [Example 18, 8-Fluoro-4-(piperidin-4-yl)pyrimido[1,2-b]indazol-2(1H)-one hydrochloride]	38	–
O=c1cc(C2CCNCC2)n2nc3c(F)cccc3c2[nH]1 [Example 28, 7-Fluoro-4-(piperidin-4-yl)pyrimido[1,2-b]indazol-2(1H)-one hydrochloride]	33	–
O=c1cc(C2CCNCC2)n2nc3cccc(I)c3c2[nH]1 [Example 20, 10-Iodo-4-(piperidin-4-yl)pyrimido[1,2-b]indazol-2(1H)-one hydrochloride]	22	–
Cc1ccnc2nn3c(C4CCNCC4)cc(=O)[nH]c3c12 [Example 47, 10-methyl-4-(piperidin-4-yl)pyrido[2′,3′:3,4]pyrazolo[1,5-a]pyrimidin-2(1H)-one hydrochloride]	24	–
CN(C)c1ccnc2nn3c(C4CCNCC4)cc(=O)[nH]c3c12 [Example 40, 10-(Dimethylamino)-4-(piperidin-4-yl)pyrido[2′,3′:3,4]pyrazolo[1,5-a]pyrimidin-2(1H)-one hydrochloride]	38	–
O=c1cc(C2CCNCC2)n2nc3ccc(F)cc3c2[nH]1 [Example 7, 9-Fluoro-4-(piperidin-4-yl)pyrimido[1,2-b]indazol-2(1H)-one hydrochloride]	95	–
O=c1cc(C2CCNCC2)n2nc3ccc(Br)cc3c2[nH]1 [Example 19, 9-Bromo-4-(piperidin-4-yl)pyrimido[1,2-b]indazol-2(1H)-one hydrochloride]	26	–
O=c1cc(C2CCNCC2)n2nc3nc(-c4ccc(F)cc4)cc(C(F)(F)F)c3c2[nH]1 [Example 42, 8-(4-Fluorophenyl)-4-(piperidin-4-yl)-10-(trifluoromethyl)pyrido[2′,3′:3,4]pyrazolo[1,5-a]pyrimidin-2(1H)-one hydrochloride]	110	–
O=c1cc(C2CCNCC2)n2nc3c(Cl)cc(Cl)cc3c2[nH]1 [Example 6, 7,9-Dichloro-4-(piperidin-4-yl)pyrimido[1,2-b]indazol-2(1H)-one hydrochloride]	94	–
N#Cc1cccc2nn3c(C4CCNCC4)cc(=O)[nH]c3c12 [Example 33, 2-Oxo-4-(piperidin-4-yl)-1,2-dihydropyrimido[1,2-b]indazole-10-carbonitrile trifluoroacetate]	–	21
O=c1cc(C2CCNCC2)n2nc3cc(Cl)ccc3c2[nH]1 [Example 39, 8-Chloro-4-(piperidin-4-yl)pyrimido[1,2-b]indazol-2(1H)-one hydrochloride]	24	–
Cc1cc(C)c2c(n1)nn1c(C3CCNCC3)cc(=O)[nH]c21 [Example 32, 8,10-Dimethyl-4-(piperidin-4-yl)pyrido[2′,3′:3,4]pyrazolo[1,5-a]pyrimidin-2(1H)-one hydrochloride]	210	–
Cc1ccc2nn3c(C4CCNCC4)cc(=O)[nH]c3c2c1 [Example 15, 9-Methyl-4-(piperidin-4-yl)pyrimido[1,2-b]indazol-2(1H)-one hydrochloride]	48	–

Results, then the molecule that gave them:

IC50 [nM]	IC50 (trifluoroacetate) [nM]	SMILES
25	–	COc1ccccc1-c1cccc2nn3c(C4CCNCC4)cc(=O)[nH]c3c12 [Example 65, 10-(2-Methoxyphenyl)-4-(piperidin-4-yl)pyrimido[1,2-b]indazol-2(1H)-one hydrochloride]
29	–	O=c1cc(C2CCNCC2)n2nc3cccc(-n4ccnn4)c3c2[nH]1 [Example 99, 4-(Piperidin-4-yl)-10-(1H-1,2,3-triazol-1-yl)pyrimido[1,2-b]indazol-2(1H)-one hydrochloride]
13	–	O=c1cc(C2CCNCC2)n2nc3cccc(C4CCCC4)c3c2[nH]1 [Example 63, 10-Cyclopentyl-4-(piperidin-4-yl)pyrimido[1,2-b]indazol-2(1H)-one hydrochloride]
30	–	COc1cccc(F)c1-c1cccc2nn3c(C4CCNCC4)cc(=O)[nH]c3c12 [Example 97, 10-(2-Fluoro-6-methoxyphenyl)-4-(piperidin-4-yl)pyrimido[1,2-b]indazol-2(1H)-one hydrochloride]
16	–	O=c1cc(C2CCNCC2)n2nc3cccc(-c4ccncc4)c3c2[nH]1 [Example 59, 4-(Piperidin-4-yl)-10-(pyridin-4-yl)pyrimido[1,2-b]indazol-2(1H)-one hydrochloride]
110	–	O=c1cc(C2CCNCC2)n2nc3cccc(-c4cnc[nH]4)c3c2[nH]1 [Example 103, 10-(1H-imidazol-5-yl)-4-(piperidin-4-yl)pyrimido[1,2-b]indazol-2(1H)-one hydrochloride]
20	–	O=c1cc(C2CCNCC2)n2nc3cccc(-c4ccccn4)c3c2[nH]1 [Example 82, 4-(Piperidin-4-yl)-10-(pyridin-2-yl)pyrimido[1,2-b]indazol-2(1H)-one hydrochloride]
35	–	CC1CC(c2cc(=O)[nH]c3c4c(Cl)cccc4nn23)CCN1 (single isomer, unassigned; (+)) [Example 101, (+)-Cis-10-Chloro-4-(2-methylpiperidin-4-yl)pyrimido[1,2-b]indazol-2(1H)-one hydrochloride [Enantiomerically Pure Cis-Isomer]]
23	–	CC(C)Cc1cccc2nn3c(C4CCNCC4)cc(=O)[nH]c3c12 [Example 73, 10-Isobutyl-4-(piperidin-4-yl)pyrimido[1,2-b]indazol-2(1H)-one hydrochloride]
11	–	Cc1cc(Cl)c2c(c1)nn1c(C3CCNCC3)cc(=O)[nH]c21 [Example 79, 10-Chloro-8-methyl-4-(piperidin-4-yl)pyrimido[1,2-b]indazol-2(1H)-one hydrochloride]
41	–	O=c1cc(C2CCNCC2)n2nc3cccc(-c4nccs4)c3c2[nH]1 [Example 83, 4-(Piperidin-4-yl)-10-(1,3-thiazol-2-yl)pyrimido[1,2-b]indazol-2(1H)-one hydrochloride]
15	–	Cc1ccc2nn3c(C4CCNCC4)cc(=O)[nH]c3c2c1Br [Example 74, 10-Bromo-9-methyl-4-(piperidin-4-yl)pyrimido[1,2-b]indazol-2(1H)-one hydrochloride]
74	–	O=c1cc(C2CCNCC2)n2nc3cccc(O)c3c2[nH]1 [Example 105, 10-hydroxy-4-(piperidin-4-yl)pyrimido[1,2-b]indazol-2(1H)-one hydrobromide]
15	–	O=c1cc(C2CCNCC2)n2nc3c(F)ccc(Br)c3c2[nH]1 [Example 71, 10-Bromo-7-fluoro-4-(piperidin-4-yl)pyrimido[1,2-b]indazol-2(1H)-one hydrochloride]
14	–	C[C@H]1C[C@H](c2cc(=O)[nH]c3c4c(Br)cccc4nn23)CCN1 [Example 50, (−)-trans-10-Bromo-4-(2-methylpiperidin-4-yl)pyrimido[1,2-b]indazol-2(1H)-one hydrochloride]
15	–	CC(C)Oc1cccc2nn3c(C4CCNCC4)cc(=O)[nH]c3c12 [Example 76, 10-Isopropoxy-4-(piperidin-4-yl)pyrimido[1,2-b]indazol-2(1H)-one hydrochloride]
35	–	O=c1cc(C2CCNCC2)n2nc3ccc(F)c(Br)c3c2[nH]1 [Example 70, 10-Bromo-9-fluoro-4-(piperidin-4-yl)pyrimido[1,2-b]indazol-2(1H)-one hydrochloride]
16	–	O=c1cc(C2CCNCC2)n2nc3cc(F)cc(Br)c3c2[nH]1 [Example 81, 10-Bromo-8-fluoro-4-(piperidin-4-yl)pyrimido[1,2-b]indazol-2(1H)-one hydrochloride]
13	–	CCOc1cccc2nn3c([C@@H]4CCN[C@@H](C)C4)cc(=O)[nH]c3c12 [Example 52, (−)-trans-10-Ethoxy-4-(2-methylpiperidin-4-yl)pyrimido[1,2-b]indazol-2(1H)-one hydrochloride]
23	–	O=c1cc(C2CCNCC2)n2nc3cccc(-c4ccsc4)c3c2[nH]1 [Example 84, 4-(Piperidin-4-yl)-10-(3-thienyl)pyrimido[1,2-b]indazol-2(1H)-one hydrochloride]
15	–	COc1ccc(-c2cccc3nn4c(C5CCNCC5)cc(=O)[nH]c4c23)cc1 [Example 54, 10-(4-Methoxyphenyl)-4-(piperidin-4-yl)pyrimido[1,2-b]indazol-2(1H)-one hydrochloride]
34	–	O=c1cc(C2CCNCC2)n2nc3cccc(OCC(F)(F)F)c3c2[nH]1 [Example 107, 4-(piperidin-4-yl)-10-(2,2,2-trifluoroethoxy)pyrimido[1,2-b]indazol-2(1H)-one hydrochloride]
